In brackets after ≈: the same amount, converted by molar mass.
Tests used:
Saccharomyces cerevisiae = test: Antifungal activity against Saccharomyces cerevisiae ATCC 28383; assay type: functional
Staphylococcus aureus = test: Antibacterial activity against Staphylococcus aureus CIP 4.83; assay type: functional
[1] = test system: Respiratory syncytial virus; test: Antiviral activity against Respiratory syncytial virus infected HeLa cells; assay type: functional; settings: human respiratory syncytial virus
Coxsackievirus B4 [2] = test: Antiviral activity against Human coxsackievirus B4 infected HeLa cells; assay type: functional; settings: Enterovirus B
[3] = test system: Vesicular stomatitis virus; test: Antiviral activity against Vesicular stomatitis virus infected HeLa; assay type: functional
Coxsackievirus B4 [4] = test: Antiviral activity against Human coxsackievirus B4 infected Vero cells; assay type: functional; settings: Enterovirus B
Punta Toro virus = test: Antiviral activity against Punta Toro virus infected Vero cells; assay type: functional
Sindbis virus = test: Antiviral activity against Sindbis virus infected Vero cells; assay type: functional
Escherichia coli = test: Antibacterial activity against Escherichia coli CIP 54127; assay type: functional
Candida albicans = test: Antifungal activity against Candida albicans CIP 1180-79; assay type: functional
[5] = test system: Mammalian orthoreovirus 1; test: Antiviral activity against Mammalian orthoreovirus 1 infected Vero cells; assay type: functional
Human respirovirus 3 = test: Antiviral activity against Human parainfluenza virus 3 infected Vero cells; assay type: functional
Human alphaherpesvirus 1 [6] = test: Antiviral activity against thymidine kinase-deficient, acylcovir-resistant Human herpesvirus 1 strain KOS infected in HEL cells; assay type: functional; settings: Human alphaherpesvirus 1, KOS
[7] = test system: Vesicular stomatitis virus; test: Antiviral activity against Vesicular stomatitis virus infected HEL cells; assay type: functional
Vaccinia virus = test: Antiviral activity against Vaccinia virus infected HEL cells; assay type: functional; settings: Orthopoxvirus vaccinia
Human alphaherpesvirus 2 = test: Antiviral activity against Human herpesvirus 2 strain G infected HEL cells; assay type: functional; settings: Human alphaherpesvirus 2, strain G
Human alphaherpesvirus 1 [8] = test: Antiviral activity against Human herpesvirus 1 strain KOS infected in HEL cells; assay type: functional; settings: Human alphaherpesvirus 1, KOS
[9] = Cytotoxicity against Homo sapiens (human) HeLa cells; assay type: cell-based
[10] = Cytotoxicity against Homo sapiens (human) HEL cells; assay type: cell-based
[11] = Cytotoxicity against Chlorocebus aethiops (African green monkey) Vero cells; assay type: cell-based; settings: chlorocebus sabaeus

SMILES	MIC (Saccharomyces cerevisiae) [µg/mL]	MIC (Staphylococcus aureus) [µg/mL]	MIC [1] [µg/mL]	MIC (Coxsackievirus B4 [2]) [µg/mL]	MIC [3] [µg/mL]	MIC (Coxsackievirus B4 [4]) [µg/mL]	MIC (Punta Toro virus) [µg/mL]	MIC (Sindbis virus) [µg/mL]	MIC (Escherichia coli) [µg/mL]	MIC (Candida albicans) [µg/mL]	MIC [5] [µg/mL]	MIC (Human respirovirus 3) [µg/mL]	MIC (Human alphaherpesvirus 1 [6]) [µg/mL]	MIC [7] [µg/mL]	MIC (Vaccinia virus) [µg/mL]	MIC (Human alphaherpesvirus 2) [µg/mL]	MIC (Human alphaherpesvirus 1 [8]) [µg/mL]	MCC [9] [µg/mL]	MCC [10] [µg/mL]	MCC [11] [µg/mL]
O=C1Nc2ccccc2/C1=N\c1ccc(Oc2cccc(/N=C3/C(=O)Nc4ccccc43)c2)cc1	< 50	< 50	> 16	> 16	> 16	> 80	> 80	> 80	< 50	< 50	> 80	> 80	> 80	> 80	> 80	> 80	> 80	≥ 16	400	400
O=C1Nc2ccc(F)cc2/C1=N/c1ccc(Cc2ccc(/N=C3\C(=O)Nc4ccc(F)cc43)cc2)cc1	< 50	< 50	> 16	> 16	> 16	> 16	> 16	> 16	< 50	< 50	> 16	> 16	> 3.2	> 3.2	> 3.2	> 3.2	> 3.2	80	16	≥ 16
CCc1ccc2c(c1)/C(=N/c1c(CC)cc(Cc3cc(CC)c(/N=C4\C(=O)N(CC)c5ccc(CC)cc54)c(CC)c3Cl)c(Cl)c1CC)C(=O)N2CC	< 50	< 50	> 3.2	> 3.2	> 3.2	> 3.2	> 3.2	> 3.2	< 50	< 50	> 3.2	> 3.2	> 16	> 16	> 16	> 16	> 16	16	80	16
O=C1/C(=N\c2ccc(Cc3ccc(/N=C4\C(=O)N(Cc5ccccc5)c5ccccc54)cc3)cc2)c2ccccc2N1Cc1ccccc1	< 50	< 50	> 40	> 40	> 40	> 8	> 8	> 8	< 50	< 50	> 8	> 8	> 8	> 8	> 8	> 8	> 8	200	40	40
O=C1Nc2ccc(F)cc2/C1=N/c1ccc(Oc2ccc(/N=C3\C(=O)Nc4ccc(F)cc43)cc2)cc1	< 50	< 50	> 16	> 16	> 16	> 8	> 8	> 8	< 50	< 50	> 8	> 8	> 1.6	> 1.6	> 1.6	> 1.6	> 1.6	≥ 16	8	40
O=C1/C(=N\c2ccc(Oc3ccc(/N=C4\C(=O)N(Cc5ccccc5)c5ccccc54)cc3)cc2)c2ccccc2N1Cc1ccccc1	< 50	< 50	> 16	> 16	> 16	> 80	> 80	> 80	< 50	< 50	> 80	> 80	> 80	> 80	> 80	> 80	> 80	80	400	80
O=C1Nc2ccccc2/C1=N/c1ccc(C(=O)c2ccc(/N=C3\C(=O)Nc4ccccc43)cc2)cc1	< 50	< 50	> 16	> 16	48 (≈ 102 µM)	> 16	> 16	> 16	< 50	< 50	> 16	> 16	> 16	> 16	> 16	> 16	> 16	80	80	≥ 16
Cc1c(/N=C2/C(=O)Nc3ccccc32)cccc1/N=C1/C(=O)Nc2ccccc21	< 100	< 100	> 400	> 400	> 400	> 80	> 80	> 80	< 100	< 100	> 80	> 80	16 (≈ 42.1 µM)	> 80	> 80	> 80	> 80	≥ 400	400	400
Nc1ncnc2c1ncn2C[C@H](O)CO [(S)-DHPA]	–	–	> 500	> 500	500 (≈ 2390 µM)	> 100	–	> 100	–	–	300 (≈ 1430 µM)	> 100	–	–	–	–	–	> 500	–	500
Nc1nc2c(ncn2COCCO)c(=O)[nH]1 [ACYCLOVIR]	–	–	–	–	–	–	–	–	–	–	–	–	300 (≈ 1330 µM)	> 500	> 500	20 (≈ 88.8 µM)	2.4 (≈ 10.7 µM)	–	> 500	–
O=c1[nH]c(=O)n([C@H]2C[C@H](O)[C@@H](CO)O2)cc1/C=C/Br [BRIVUDINE]	–	–	> 500	> 500	> 500	> 100	> 100	> 100	–	–	> 100	> 100	500 (≈ 1500 µM)	> 500	60 (≈ 180 µM)	> 500	0.16 (≈ 0.48 µM)	500	> 500	500
Nc1nc2c(ncn2COC(CO)CO)c(=O)[nH]1 [GANCICLOVIR]	–	–	–	–	–	–	–	–	–	–	–	–	12 (≈ 47 µM)	> 100	> 100	4 (≈ 15.7 µM)	0.48 (≈ 1.88 µM)	–	> 100	–
NC(=O)c1ncn([C@@H]2O[C@H](CO)[C@@H](O)[C@H]2O)n1 [RIBAVIRIN]	–	–	60 (≈ 246 µM)	> 500	60 (≈ 246 µM)	> 500	60 (≈ 246 µM)	300 (≈ 1230 µM)	–	–	300 (≈ 1230 µM)	300 (≈ 1230 µM)	> 500	> 500	300 (≈ 1230 µM)	> 500	500 (≈ 2050 µM)	> 500	> 500	> 500

From ChEMBL document CHEMBL3045159, “Computational evaluation and experimental in vitro antibacterial, antifungal and antiviral activity of bis-Schiff bases of isatin and its derivatives” (Med Chem Res, 2013)
